Here are results for twelve molecules from patent publication US11912678B2, “LRRK2 inhibiting compounds and use thereof for treating neurodegenerative diseases” (CONSEJO SUPERIOR DE INVESTIGACIONES CIENTÍFICAS, priority 2018, dated 2024).

One data set concerns the target LRRK2 (Homo sapiens (Human), UniProt Q5S007). The data set can be described thus: Inhibition of LRRK2 (Adapta kinase assay). In kind it is biochemical. As to conditions: Adapta method, 60 min kinase reaction. The protocol:
(§1) The compounds were evaluated in LRRK2 and in the mutated form LRRK2 G2019S. This mutation is more frequent in the familial forms of Parkinson's Disease and has a significant increase in kinase activity. The experimental determination of the inhibition of both enzymes was carried out using the Adapta® method, which is an evaluation method of fluorescent kinase activity that determines ADP in a highly sensitive manner. The methodology can be divided into two stages: kinase reaction and ADP determination. In the first stage, all the components for the kinase reaction are added to the well and incubated for 60 min. After the reaction, the ADP detection solution which contains a Europium-labeled anti-ADP antibody (Alexa Fluor® 647 labeled ADP tracer) and EDTA, to stop the kinase reaction, are added to the reaction well. The ADP formed in the kinase reaction without inhibitor will displace the Alexa Fluor® 647 labeled ADP tracer of the antibody, resulting in the TR-FRET signal decrease.
(§2) The assay is performed in 384-well plates. Adding 100 nL of the solution with the compound to be evaluated in 1% DMSO, 2.4 μL of HEPES solution, 2.5 μL of ATP solution, […] of substrate solution. The 10 μl of the kinase reaction contain: […] LRRK2 and 200 μM ERM (LRRKtide) in 25 mM Tris/7.5 mM HEPES pH 8.2, 0.005% BRIJ-35, 5 mM MgCl2, 0.5 mM EGTA, 0.01% NaN3 or 3-12 ng LRRK2 G2019S and 200 μM ERM (LRRKtide) in 25 mM Tris/7.5 mM HEPES pH 8.2, 0.005% BRIJ-35, 5 mM MgCl2, 0.5 mM EGTA, 0.01% NaN3. The plate is stirred for 30 s on a stirring plate and centrifuged for 1 min in a centrifuge at 1,000×g. The reaction is incubated at room temperature for 60 min. After this time period, 5 μL of the detection mixture is added, the plate is stirred for 30 s on a stirring plate and centrifuged for 1 min at 1,000×g. Fluorescence is determined in a plate reader and the data are analysed.

A further data set addresses LRRK2 G2019S (Homo sapiens (Human), UniProt Q5S007, G2019S). Put plainly: Inhibition of LRRK2 G2019S (Adapta kinase assay). In kind it is biochemical. As to conditions: Adapta method, 60 min kinase reaction. The protocol:
as §1, §2

For data set [1], the system named is human neuronal line SH-SY5Y. The data set can be described thus: Neuroprotection against okadaic acid-induced tau hyperphosphorylation (MTT). In kind it is cell-based. The settings on record: compounds 1, 5 and 10 μM pre-incubated 1 hour, OA 30 nM 24 hours. The protocol: The neuroprotective potential of the compounds was evaluated in an okadaic acid (OA)-induced neurodegeneration cell model. OA is an inhibitor of phosphatase 1 and 2 and is normally used to induce tau hyperphosphorylation in different cell lines. In this case, the human neuronal line SH-SY5Y is used. The cells are cultured in DMEM medium supplemented with 10% FBS and 1% penicillin/streptomycin at 37° C. and in an incubator with 5% CO2. The SH-SY5Y cells are sown on a 96-well plate at a density of 60,000 cells per well for 48 hours. After this time period, the cells are pre-incubated with the compounds to be studied at a concentration of 1, 5 and 10 μM for 1 hour. After that time period, OA is added at a concentration of 30 nM, letting the plate incubate for a further 24 hours. Next, the cells were incubated with an MTT solution at 0.5 mg·mL^−1 for at least 4 hours at 37° C. and 5% CO2. Next, the culture medium is removed and the formazan crystals joined to the base of the plate are dissolved with 200 μL of DMSO. Lastly, UV absorbance was measured at 595 nm in a plate reader (Varioskan Flash Microplate reader, Thermo Scientific).

A short description of the next data set: in vitro. As to conditions: PAMPA; for Pe (10−6 cm s−1) / Papp at 2.5 h: pig, pH 7.4; for Pe (10−6 cm s−1): 2.5 h. An excerpt:
The above-referenced commercial compounds, phosphate buffer at pH=7.4 (PBS), Ethanol and dodecane were obtained from the commercial houses Sigma, Acros organics, Merck, Aldrich and Fluka, respectively. […] To filter the samples, PVDF membrane filters were used (30 mm diameter, 0.45 μm pore size) from the company Symta. The equipment used to measure UV absorbance in 96-well plates was a Thermoscientific Multiskan spectrum.
Ten reference compounds were selected, whose blood-brain barrier passage is known, in order to validate the experiment. […] The solutions were filtered. Next, 180 μL of a PBS/EtOH (70/30) solution were added to each well of the acceptor plate. The donor plate was impregnated with 4 μL of a pig brain lipid solution dissolved in dodecane (20 mg mL^−1). After 5 minutes, 180 μL of solution of each compound were added on this plate. Of the compounds whose penetration in the central nervous system is being evaluated, between 1-2 mg were taken and dissolved in 1,500 μL of EtOH and 3,500 μL of PBS phosphate buffer (pH=7.4), filtered and added to the 96-well donor plate. Next, the donor plate was placed on top of the acceptor plate forming a kind of “sandwich” and left to incubate for 2 h and 30 min at 25° C. The passive transport compounds pass from the donor plate through the pig brain lipid to the acceptor plate. After 2 h and 30 min, the donor plate is carefully removed. The concentration and absorbance of both the commercial compounds and the synthesised derivatives that were evaluated in the acceptor and donor plates were determined using a UV absorbance reader. Each sample was analysed at 2 to 5 wavelengths, in at least three wells and in two independent experiments. […] Ten reference commercial compounds whose penetration in the central nervous system is known were used in each experiment in order to validate the method.
(In general: In PAMPA a lipid-coated filter parts donor from acceptor wells.)

LRRK2, sequence (Q5S007 whole entry): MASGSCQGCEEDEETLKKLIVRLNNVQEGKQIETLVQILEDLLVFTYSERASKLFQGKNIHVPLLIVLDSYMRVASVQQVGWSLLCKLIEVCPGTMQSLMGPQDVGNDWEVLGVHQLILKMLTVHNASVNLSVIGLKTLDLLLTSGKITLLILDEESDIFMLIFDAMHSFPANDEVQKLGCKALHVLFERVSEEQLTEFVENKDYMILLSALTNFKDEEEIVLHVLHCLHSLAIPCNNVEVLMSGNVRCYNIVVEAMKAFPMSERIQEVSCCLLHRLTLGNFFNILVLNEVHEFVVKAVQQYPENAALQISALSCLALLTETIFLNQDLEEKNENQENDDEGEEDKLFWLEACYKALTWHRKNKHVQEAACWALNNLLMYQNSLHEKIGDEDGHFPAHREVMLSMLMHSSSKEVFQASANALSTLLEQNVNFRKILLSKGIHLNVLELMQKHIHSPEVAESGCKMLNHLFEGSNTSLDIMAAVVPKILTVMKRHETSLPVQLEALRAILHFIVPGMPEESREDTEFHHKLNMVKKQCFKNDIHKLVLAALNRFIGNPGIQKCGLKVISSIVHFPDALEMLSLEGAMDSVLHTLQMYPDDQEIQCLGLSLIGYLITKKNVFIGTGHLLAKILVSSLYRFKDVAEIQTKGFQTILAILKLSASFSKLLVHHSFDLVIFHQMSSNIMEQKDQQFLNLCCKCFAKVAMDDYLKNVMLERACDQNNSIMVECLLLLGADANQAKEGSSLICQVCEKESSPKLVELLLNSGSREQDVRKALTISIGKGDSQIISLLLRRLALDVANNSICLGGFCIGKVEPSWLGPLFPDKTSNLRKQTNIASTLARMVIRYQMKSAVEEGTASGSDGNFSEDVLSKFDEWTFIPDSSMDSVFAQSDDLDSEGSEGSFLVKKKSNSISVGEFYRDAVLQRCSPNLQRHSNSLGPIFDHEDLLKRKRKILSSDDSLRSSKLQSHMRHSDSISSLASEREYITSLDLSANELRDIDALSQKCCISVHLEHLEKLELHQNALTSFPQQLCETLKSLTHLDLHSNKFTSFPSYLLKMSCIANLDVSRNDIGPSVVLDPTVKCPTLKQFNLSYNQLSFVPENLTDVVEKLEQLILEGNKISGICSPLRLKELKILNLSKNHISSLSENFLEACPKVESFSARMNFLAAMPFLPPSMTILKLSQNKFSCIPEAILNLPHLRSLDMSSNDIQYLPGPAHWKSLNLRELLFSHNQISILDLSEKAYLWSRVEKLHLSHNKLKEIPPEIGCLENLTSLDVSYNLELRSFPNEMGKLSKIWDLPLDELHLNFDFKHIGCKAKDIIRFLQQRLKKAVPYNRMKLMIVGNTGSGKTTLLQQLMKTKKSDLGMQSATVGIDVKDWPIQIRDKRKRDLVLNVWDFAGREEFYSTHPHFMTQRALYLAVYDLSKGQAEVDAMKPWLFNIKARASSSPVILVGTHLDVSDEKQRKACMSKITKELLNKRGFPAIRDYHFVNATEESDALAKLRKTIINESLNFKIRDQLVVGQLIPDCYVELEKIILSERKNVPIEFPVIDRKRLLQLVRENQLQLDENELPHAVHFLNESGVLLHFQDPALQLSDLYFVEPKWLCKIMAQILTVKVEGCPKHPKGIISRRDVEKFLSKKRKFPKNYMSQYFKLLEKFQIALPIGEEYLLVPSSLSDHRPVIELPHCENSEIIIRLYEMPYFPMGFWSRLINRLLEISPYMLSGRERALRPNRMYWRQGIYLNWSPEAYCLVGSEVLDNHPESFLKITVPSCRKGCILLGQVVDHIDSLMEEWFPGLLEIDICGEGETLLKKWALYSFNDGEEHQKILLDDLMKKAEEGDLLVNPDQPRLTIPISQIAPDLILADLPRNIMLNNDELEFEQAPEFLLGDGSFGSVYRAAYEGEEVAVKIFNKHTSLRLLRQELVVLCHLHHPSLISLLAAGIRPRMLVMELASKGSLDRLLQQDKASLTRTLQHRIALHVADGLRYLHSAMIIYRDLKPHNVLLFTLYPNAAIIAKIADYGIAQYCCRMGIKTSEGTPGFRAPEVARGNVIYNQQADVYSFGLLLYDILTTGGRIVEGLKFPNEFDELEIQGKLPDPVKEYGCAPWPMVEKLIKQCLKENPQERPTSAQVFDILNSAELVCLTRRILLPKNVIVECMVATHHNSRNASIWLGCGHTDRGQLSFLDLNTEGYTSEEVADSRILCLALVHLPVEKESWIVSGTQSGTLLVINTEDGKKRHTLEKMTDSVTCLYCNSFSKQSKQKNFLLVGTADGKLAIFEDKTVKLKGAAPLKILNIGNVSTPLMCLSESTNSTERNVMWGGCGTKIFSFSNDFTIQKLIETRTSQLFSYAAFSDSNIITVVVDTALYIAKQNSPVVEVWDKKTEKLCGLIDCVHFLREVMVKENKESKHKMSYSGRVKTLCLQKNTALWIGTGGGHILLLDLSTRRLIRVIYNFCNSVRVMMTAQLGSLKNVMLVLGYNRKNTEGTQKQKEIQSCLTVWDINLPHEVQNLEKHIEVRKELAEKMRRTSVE
LRRK2 G2019S, sequence (Q5S007 whole entry G2019S): as the sequence (Q5S007 whole entry) above, with G2019S counted along it

The IC50 is the midpoint of a concentration-inhibition curve. Read a high IC50 as weaker potency in that assay. At LRRK2, `O=C(Nc1nc2ccccc2s1)c1ccc(N2CCOCC2)cc1` [Compound 1, N-(benzothiazole-2-yl)-4-morpholinobenzamide] had an IC50 of 696 nM. Further, on LRRK2 G2019S, the 50% inhibitory concentration (IC50) was found to be 360 nM. Moreover, the “Neuroprotection against okadaic acid damage / tau hyperphosphorylation” value in data set [1] is given as “prevents the damage caused by the okadaic acid”. Further, in the data set “in vitro”, the “Blood-brain barrier penetration by passive diffusion” value (from here on “Blood-brain barrier penetration”) was “capable of penetrating the blood-brain barrier by passive diffusion” and the “Pe (10−6 cm s−1)” value is listed as 13.4 ± 2.4 10−6 cm s−1.

As to `COc1ccc2nc(NC(=O)c3ccc(N4CCOCC4)cc3)sc2c1` [Compound 2, N-(6-methoxybenzothiazole-2-yl)-4-morpholinobenzamide], the IC50 at LRRK2 was found to be 368 nM; against LRRK2 G2019S, 108 nM. Moreover, the “Neuroprotection against okadaic acid damage / tau hyperphosphorylation” value in data set [1] was “prevents the damage caused by the okadaic acid”.

As to `O=C(Nc1nc2ccc(C(F)(F)F)cc2s1)c1ccc(N2CCOCC2)cc1` [Compound 3, N-(6-trifluoromethylbenzothiazole-2-yl)-4-morpholinobenzamide], the values for the half-inhibitory concentration (IC50) against LRRK2 and against LRRK2 G2019S were 1060 nM and 293 nM, respectively. The “Neuroprotection against okadaic acid damage / tau hyperphosphorylation” value in data set [1] was “prevents the damage caused by the okadaic acid”.

On LRRK2, `Cc1ccc2nc(NC(=O)c3ccc(N4CCOCC4)cc3)sc2c1` [Compound 4, N-(6-methylbenzothiazole-2-yl)-4-morpholinobenzamide] came in with a half-maximal inhibitory concentration (IC50) of 523 nM. The molecule also had an IC50 against LRRK2 G2019S of 332 nM. Also, in data set [1], the “Neuroprotection against okadaic acid damage / tau hyperphosphorylation” value is “prevents the damage caused by the okadaic acid”. For the same molecule, in the data set “in vitro”, the “Blood-brain barrier penetration” value is reported as “capable of penetrating the blood-brain barrier by passive diffusion” and the “Pe (10−6 cm s−1)” value is on record as 19.0 ± 2.6 10−6 cm s−1.

As a reminder, the Papp is the rate of passage across a membrane or cell layer, normalised by area and donor concentration. The low end stands for slow passage, the high end for fast passage. As for `O=C(Nc1nc2ccc(Cl)cc2s1)c1ccc(N2CCOCC2)cc1` [Compound 5, N-(6-chlorobenzothiazole-2-yl)-4-morpholinobenzamide], half-maximal inhibition at LRRK2 (IC50) required 777 nM. Besides, the “Neuroprotection against okadaic acid damage / tau hyperphosphorylation” value in data set [1] is on record as “prevents the damage caused by the okadaic acid”. In the data set “in vitro”, the “Prediction of penetration in the central nervous system (CNS)” value is given as “CNS+/−” and the apparent permeability (Papp) at 2.5 h was determined as 3.42 ± 1.26 ×10⁻⁶ cm/s.

Molecule `O=C(Nc1nc2ccc(F)cc2s1)c1ccc(N2CCOCC2)cc1` [Compound 6, N-(6-fluorobenzothiazole-2-yl)-4-morpholinobenzamide] displayed an IC50 on LRRK2 of 190 nM. The molecule further gave an IC50 at LRRK2 G2019S of 426 nM. The “Neuroprotection against okadaic acid damage / tau hyperphosphorylation” value in data set [1] was “prevents the damage caused by the okadaic acid”. Moreover, in the data set “in vitro”, the “Blood-brain barrier penetration” value is “capable of penetrating the blood-brain barrier by passive diffusion” and the “Pe (10−6 cm s−1)” value is reported as 5.1 ± 0.1 10−6 cm s−1.

Turning to `CCOc1ccc2nc(NC(=O)c3ccc(N4CCOCC4)cc3)sc2c1` [Compound 7, N-(6-ethoxybenzothiazole-2-yl)-4-morpholinobenzamide], the values for the IC50 against LRRK2 and against LRRK2 G2019S were 308 nM and 158 nM, respectively. In addition, the “Neuroprotection against okadaic acid damage / tau hyperphosphorylation” value in data set [1] is “prevents the damage caused by the okadaic acid”.

Consider `O=C(Nc1nc2ccc(Br)cc2s1)c1ccc(N2CCOCC2)cc1` [Compound 8, N-(6-bromobenzothiazole-2-yl)-4-morpholinobenzamide], for which the IC50 stood at 474 nM against LRRK2 and 1380 nM against LRRK2 G2019S. Also, the “Neuroprotection against okadaic acid damage / tau hyperphosphorylation” value in data set [1] is recorded as “prevents the damage caused by the okadaic acid”.

For `CCCOc1ccc2nc(NC(=O)c3ccc(N4CCOCC4)cc3)sc2c1` [Compound 9, N-(6-propoxybenzothiazole-2-yl)-4-morpholinobenzamide], the 50% inhibitory concentration (IC50) on LRRK2 turned out to be 4000 nM; against LRRK2 G2019S, 1190 nM. The “Neuroprotection against okadaic acid damage / tau hyperphosphorylation” value in data set [1] is reported as “prevents the damage caused by the okadaic acid”. The same molecule yielded an apparent permeability (Papp) at 2.5 h in “in vitro” of 4.28 ± 3.45 ×10⁻⁶ cm/s.

`CC(C)c1ccc2nc(NC(=O)c3ccc(N4CCOCC4)cc3)sc2c1` [Compound 10, N-(6-isopropylbenzothiazole-2-yl)-4-morpholinobenzamide]: the concentration for half-maximal inhibition (IC50) was 1950 nM at LRRK2 and 1170 nM at LRRK2 G2019S. The “Neuroprotection against okadaic acid damage / tau hyperphosphorylation” value in data set [1] is recorded as “prevents the damage caused by the okadaic acid”. The molecule further showed a Papp at 2.5 h in the data set “in vitro” of 4.27 ± 2.7 ×10⁻⁶ cm/s.

Regarding `CN1C(C(=O)Nc2ccccn2)=C(O)c2ccccc2S1(=O)=O` [Piroxicam, reference compound], in “in vitro”, the “Pe (10−6 cm s−1)” value was 0.6 ± 0.2 10−6 cm s−1.

Take `CN(C)CCCN1c2ccccc2Sc2ccccc21` [Promazine, reference compound]: the “Pe (10−6 cm s−1)” value in “in vitro” is 9.8 ± 0.5 10−6 cm s−1.
